Laboratory results as given in patent publication US10934275B2, “IRE1 small molecule inhibitors” (Cornell University, priority 2016, dated 2021).
pEC50: −log10 of the molar value. Structures can show the parent of a compound that is named as a salt.

What was measured:
[1] = molecular target: T1, IRE1α (Homo sapiens, UniProt O75460); experiment: In vitro FRET assay (XBP1 RNA probe cleavage by IRE1α); format: biochemical; parameters: purchased SignalChem; settings: SignalChem IRE1α protein 2 nM
Description: In vitro FRET assay was performed to evaluate the ability of select compounds to inhibit IRE1, the results of which are summarized in Table 5. To perform the in vitro FRET assay, 1× complete assay buffer (CAB; […], 50 mM sodium citrate pH 7.15, 1 mM magnesium acetate, 0.02% tween 20) was used to dilute SignalChem IRE1α protein to a final concentration of 2 nM. Selected compounds were serially diluted with DMSO in a non-binding black 384-well plate for a total of 15 ul in each well. 2 ul of the serially diluted compound or DMSO control were then added to new wells containing 98 ul of 1×CAB, for a total volume of 100 ul, 10 ul of which were then transferred to wells of a new plate. 5 ul of the diluted IRE1α was then added to each well. 5 ul of a […] XBP1 RNA probe was then added to each well. Fluorescence was then read over 30 minutes in kinetic mode (485/515 nm).
Two RNA probes were used, XBP1 wildtype (SEQ ID NO: 2) which is able to be spliced by active IRE1α or XBP1 mutant (SEQ ID NO: 3) which is unable to be spliced. Each probe contained a 5′ 6-FAM modification and a 3′ IOWA Black FQ modification.
A second FRET assay was performed to assess ATP-mediated inhibition. In this case, compounds and IRE1α were prepared and combined as discussed above, with the addition of ATP up to 1 mM final concentration. This mixture was incubated at room temperature for 60 minutes and then 5 ul of 400 nM XBP1 wildtype or mutant RNA probe was added. Plates were then read over 30 minutes in kinetic mode (485/515 nm).
Target sequence in this assay (O75460 468-977 limits assumed): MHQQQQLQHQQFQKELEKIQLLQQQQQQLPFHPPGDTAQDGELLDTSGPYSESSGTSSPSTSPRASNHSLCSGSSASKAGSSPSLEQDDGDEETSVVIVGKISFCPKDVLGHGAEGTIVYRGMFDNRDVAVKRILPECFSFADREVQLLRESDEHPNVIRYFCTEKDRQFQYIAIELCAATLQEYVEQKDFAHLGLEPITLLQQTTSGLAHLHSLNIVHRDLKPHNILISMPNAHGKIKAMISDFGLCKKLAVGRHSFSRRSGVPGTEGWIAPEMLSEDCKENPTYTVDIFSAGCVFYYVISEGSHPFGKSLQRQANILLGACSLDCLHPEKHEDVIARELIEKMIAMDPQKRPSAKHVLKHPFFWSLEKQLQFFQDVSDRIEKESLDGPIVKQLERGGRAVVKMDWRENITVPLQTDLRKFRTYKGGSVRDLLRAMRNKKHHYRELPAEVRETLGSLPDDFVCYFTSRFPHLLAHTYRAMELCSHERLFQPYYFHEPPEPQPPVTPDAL

[2] = molecular target: T1, IRE1α; experiment: IRE1α Endoribonuclease Nanoluciferase Assay (XBP1 luciferase reporter, 293T cells); format: cell-based; parameters: endogenous in cells; host or cells: 293T cells; settings: 293T cells transfected with XBP1 luciferase reporter plasmid, stressors +/- inhibitors
Description: Compounds disclosed herein were assessed for disruption of IRE-1 signaling using a IRE1α Endoribonuclease Nanoluciferase Assay. Briefly, 2.5×10^6 293T cells were seeded in a 10 cm^2 tissue culture plate. About 24 hours later, the cells were transfected with Effectene. In a 15 mL Tube, the following was added: 2 μg XBP1 luciferase reporter plasmid (PGK-Luc2-P2A-XBP1u-Nanoluciferase-PEST); 300 μl EC buffer; and 16 μl Enhancer, followed by incubation at room temp for 5 minutes. Next, 60 μl Effectene (Qiagen 301427) was added, followed by incubation at room temperature for 10 minutes. 2.6 mL cDMEM media was added. Old media was aspirated from the cells, followed by addition of 7 mL fresh media. Full transfection mixture was added dropwise to cells. Cells were incubated for 6 hours, followed by tripsinization, centrifugation and resuspension in 11 mL media. 100 uL of cells were plated per a well in a 96 well plate. A day later, stressors of choice +/− inhibitors were added. To harvest, media was aspirated from cells completely, then 50 uL 1× passive lysis buffer (Promega: E1941) was added per well and put on shaker (300 rpm) for 30 minutes at room temperature. Cells were centrifuged, and 15 uL sample per well was added to a new, opaque white 384 well plate (Corning 3570). 15 uL OneGlo (nanoluciferase kit, Promega N1630) was added. Plates were spun down, placed on shaker (300 rpm) for 10 minutes. Plates were read on luminometer, 1000 ms integration time per well. 15 uL Stop and Glo (nanoluciferase kit) was added. Plates were spun down, placed on shaker (300 rpm) for 10 minutes. Plates were read on luminometer, 1000 ms second integration time per well. Recordings are provided below in Table 6.
Target sequence in this assay (O75460 19-977): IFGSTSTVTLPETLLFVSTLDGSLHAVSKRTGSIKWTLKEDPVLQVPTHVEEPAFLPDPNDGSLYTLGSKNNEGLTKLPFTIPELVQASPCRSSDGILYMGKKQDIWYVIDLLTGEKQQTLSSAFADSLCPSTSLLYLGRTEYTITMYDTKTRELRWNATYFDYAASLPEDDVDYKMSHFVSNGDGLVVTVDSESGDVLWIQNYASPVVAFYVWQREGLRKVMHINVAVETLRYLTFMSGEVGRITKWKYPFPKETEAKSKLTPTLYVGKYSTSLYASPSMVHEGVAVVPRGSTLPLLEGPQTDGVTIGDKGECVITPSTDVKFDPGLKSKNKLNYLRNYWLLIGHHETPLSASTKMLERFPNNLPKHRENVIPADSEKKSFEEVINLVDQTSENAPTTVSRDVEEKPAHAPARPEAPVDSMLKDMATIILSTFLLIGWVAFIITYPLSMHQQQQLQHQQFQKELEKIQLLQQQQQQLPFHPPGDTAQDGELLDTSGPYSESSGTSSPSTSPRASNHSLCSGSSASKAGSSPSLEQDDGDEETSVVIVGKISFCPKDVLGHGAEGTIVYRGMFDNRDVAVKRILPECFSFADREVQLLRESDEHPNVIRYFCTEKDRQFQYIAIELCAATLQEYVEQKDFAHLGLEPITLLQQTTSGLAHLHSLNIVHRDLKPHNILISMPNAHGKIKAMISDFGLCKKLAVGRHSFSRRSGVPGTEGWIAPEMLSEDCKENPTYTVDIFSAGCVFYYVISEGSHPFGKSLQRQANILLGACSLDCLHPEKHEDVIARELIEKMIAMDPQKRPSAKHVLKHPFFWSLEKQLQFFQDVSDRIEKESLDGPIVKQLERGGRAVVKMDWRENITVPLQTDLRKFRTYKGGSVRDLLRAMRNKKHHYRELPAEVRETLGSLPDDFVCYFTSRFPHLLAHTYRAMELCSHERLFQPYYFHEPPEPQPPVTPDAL

SMILES | pEC50 [1] | pEC50 [2]
CN1CCN(Cc2ccc(NC(=O)Nc3cc(-c4ccc5cc(NC6CCCCC6)ncc5c4)n(C)n3)cc2C(F)(F)F)CC1 [4; TFA] | < 7.00 | –
CN1CCN(Cc2ccc(NC(=O)Nc3cc(-c4ccc5nc(NC6CCCCC6)ncc5c4)n(C)n3)cc2C(F)(F)F)CC1 [Compound 5, 1-(5-(2-(cyclohexylamino)quinazolin-6-yl)-1-methyl-1H-pyrazol-3-yl)-3-(4-((4-methylpiperazin-1-yl)methyl)-3-(trifluoromethyl)phenyl)urea] | < 7.00 | < 7.00
Cc1cc(-c2cc(NC(=O)Nc3ccc(CN4CCN(C)CC4)c(C(F)(F)F)c3)nn2C)cc2cnc(N)nc12 [Compound 12, 1-(5-(2-amino-8-methylquinazolin-6-yl)-1-methyl-1H-pyrazol-3-yl)-3-(4-((4-methylpiperazin-1-yl)methyl)-3-(trifluoromethyl)phenyl)urea] | 7.30 to 8.30 | < 7.00

Now from value to compound:

pEC50 [1] | pEC50 [2] | SMILES
≥ 8.30 | < 7.00 | CN1CCN(Cc2ccc(NC(=O)Nc3cc(-c4ccc5nc(NC6CCNCC6)ncc5c4)n(C)n3)cc2C(F)(F)F)CC1 [2; TFA]
≥ 8.30 | ≥ 8.30 | CCc1cc(-c2cc(NC(=O)Nc3ccc(CN4CCN(C)CC4)c(C(F)(F)F)c3)nn2C)cc2cnc(N[C@H]3CC[C@H](N)CC3)nc12 [Compound 31, 1-(5-(2-(((1r,4r)-4-aminocyclohexyl)amino)-8-ethylquinazolin-6-yl)-1-methyl-1H-pyrazol-3-yl)-3-(4-((4-methylpiperazin-1-yl)methyl)-3-(trifluoromethyl)phenyl)urea]
